Assay results: patent US11352350B2, “IRAK degraders and uses thereof” (Kymera Therapeutics, Inc., priority 2018, dated 2022)
Read-outs that look alike come from different tables or passages of the source.

Experiments:
IRAK4 [1] = target: T1, IRAK4 (Homo sapiens (Human), UniProt Q9NWZ3); assay: IRAK4 degradation in human whole blood lymphocyte - flow cytometry; assay type: cell-based; conditions: read-out: IRAK4 degradation in whole blood lymphocyte-Flow cytometry: Average external Abs IC50
Procedure: (§1) Human whole blood IRAK4 degradation flow assay. Whole blood was collected in heparinized tubes and plated on the same day as draw (day 0). Whole blood was aliquoted into deep well plates. Compound plates were prepared and a 10 point, 5-fold dilution was performed with a final DMSO concentration of 0.1%. Compound was added to whole blood deep well plate, sealed and incubated at 37° C., 5% CO2 for 20 hours (for 4 hour treatment, compounds were prepared and added the following day). Following the treatment incubation period (day 1), BD lyse fix (BD #558049) was added to the whole blood plate, placed on plate shaker for 30 seconds and incubated for 10 mins at room temperature. Whole blood was then spun down and washed two times with PBS/0.5% BSA, aspirated to pellet and placed into −80° C. freezer until further processing for flow. On the flow run day, whole blood plates were thawed and samples were transferred to PCR plates. The pre-perm staining cocktail (CD3 Ax488/CD8 BUV805/CD14 BUV395/CD16/56 BV711/CD19 BV785) was added to samples and incubated for 30 minutes at room temperature. Samples were washed two times and permeabilized with Methanol for 10 minutes at 4° C. Samples were washed two times and the post-perm staining cocktail (CD4 PE/IRAK4 Ax647 BD #560315) was added and incubated for 30 minutes at room temperature. Samples were washed two times with PBS/BSA and run on a BD LSRFortessa. Mononuclear cells are gated by SSCH/FSCH and single cells. Monocytes are then gated through CD14 positive gate and lymphocytes are gated through CD14 negative gate. To determine absolute DC50 and max degradation values, MFI values were normalized to DMSO max and 20 hour 10 μM min control. Twenty hour dose curves were calculated using a 4 parameter logistic regression curve fit, no constraints (Top doses were removed if hook effects were observed and the bottom was constrained to 0).

TNFα [2] = assay: Human whole blood LPS TNFα assay; assay type: cell-based; conditions: 20 h pretreatment, LPS 5 h, read-out: IRAK4 human whole blood LPS TNFa inhibition: Average external-IC50
Procedure: Human Whole blood LPS TNFα assay. Whole blood was collected fresh and plated same day into 96 well plates at 180 μL per well. Compound plates were prepared in DMSO as 8-point dose curves in duplicate, starting dose 2 μM, 5-fold. Compounds are added 20 μL into blood for final 200 μL per well. Compound and cells were incubated at 37° C., 5% CO2 for 20 hours. After twenty hours of pretreatment with the compounds, LPS (01 1 1:B4) (Sigma #L2637) was added at 100 ng/ml final concentration and blood incubated an additional five hours at 37° C., 5% CO2. Following assay completion, whole blood plates were spun down at 2000 rpm for 15 minutes at 4° C. 50 μL of plasma was carefully removed and placed into a new 96 well Costar (#3879) plate and stored at −80° C. until further analysis. Meso scale Discovery (MSD) human V-plex assays were used to measure cytokine levels. On day of cytokine analysis, plasma samples were thawed, diluted with V-plex diluent #2, and directly to MSD plates. Assay was further completed per standard manufacturer's protocol. Cytokine data was normalized to LPS stimulated and unstimulated controls. Prism Graphpad was used to generate IC50 using 4 parameter logistic regression curve, free-fit.

TNFα [3] = assay: Human PBMC LPS TNFα assay; assay type: cell-based; conditions: hPBMC, LPS stimulation, read-out: IRAK4 hPBMC LPS TNF-α inhibition: Average external-IC50
Procedure: Human PBMC LPS TNFα assay. Frozen PBMCs were thawed into RPMI with 10% FBS/1% penicillin/streptomycin and same day plated into 96 well plates at 200,000 PBMC/[…] media per well. Compound plates were prepared in DMSO with D300 cassette as 8-point dose curves in duplicate, starting dose 2 μM, 5-fold. Compounds are added 200 nL into cells for final 200 μL per well. Compound and cells were incubated at 37° C., 5% CO2 for 20 hours. After twenty hours of pretreatment with the compounds, LPS (01 1 1:B4) (Sigma #L2637) was added at 100 ng/ml final concentration and PBMCs incubated an additional five hours at 37° C., 5% CO2. Following assay completion, PBMC plates were spun down at 2000 rpm for 10 minutes. 100 uL of supernatant was carefully removed and placed into a new 96 well Costar (#3879) plate and stored at −80° C. until further analysis. Meso scale Discovery (MSD) human V-plex assays were used to measure cytokine levels. On day of cytokine analysis, supernatant samples were thawed, diluted with V-plex diluent #2, and directly to MSD plates. Assay was further completed per standard manufacturer's protocol. Cytokine data was normalized to LPS stimulated and unstimulated controls. Prism Graphpad was used to generate IC50 using 4 parameter logistic regression curve, free-fit.

IRAK4 [4] = target: T1, IRAK4; assay: IRAK4 degradation in human whole blood monocyte - flow cytometry; assay type: cell-based; conditions: read-out: IRAK4 degradation in whole blood monocyte-Flow cytometry: Average external Abs IC50
Procedure: as §1

IRAK4 [5] = target: T1, IRAK4; assay: IRAK4 MSD degradation in OCI-LY10; assay type: cell-based; conditions: MSD
How it was run: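 OCI-LY10 cells treated with 8-point 1:3 dilutions (top 1 to 10 μM final) for 4 to 24 h at 37° C. Lysate IRAK4 measured by MSD sandwich immunoassay (2H9 capture, Y279 detection, SULFO-TAG anti-rabbit). DC50 from three-parameter logistic fit.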

OCI-LY10 = assay: CTG Cell Viability Assay - OCI-LY10; assay type: cell-based, human; conditions: OCI-LY10, 4 days, read-out: CTG Cell Viability Assay - OCI-LY10: Average external-IC50
How it was run: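 OCI-LY10 cells exposed to 9-dose, 1:3 dilutions from 10 μM top (0.2% DMSO) for 4 days at 37° C, 5% CO2. Viability by CellTiter-Glo luminescence; IC50 from three-parameter logistic fit.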

[6] = OCI-LY10, 4 hrs, read-out: IRAK4 MSD degradation in OCI-LY10 at 4 hrs: Average external-Abs DC50

T1 sequence (Q9NWZ3 whole entry): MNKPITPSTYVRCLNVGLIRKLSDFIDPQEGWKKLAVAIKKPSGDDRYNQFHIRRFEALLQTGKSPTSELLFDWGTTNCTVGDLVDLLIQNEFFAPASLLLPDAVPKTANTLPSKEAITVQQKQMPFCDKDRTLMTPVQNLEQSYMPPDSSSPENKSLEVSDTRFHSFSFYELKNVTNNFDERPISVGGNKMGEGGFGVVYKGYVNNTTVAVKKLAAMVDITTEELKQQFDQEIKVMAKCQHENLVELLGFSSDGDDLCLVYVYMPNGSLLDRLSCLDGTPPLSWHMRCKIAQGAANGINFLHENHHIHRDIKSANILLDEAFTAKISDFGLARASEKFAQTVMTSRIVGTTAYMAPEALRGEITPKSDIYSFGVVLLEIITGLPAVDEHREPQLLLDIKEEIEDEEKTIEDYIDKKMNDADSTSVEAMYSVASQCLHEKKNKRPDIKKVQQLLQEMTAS

Compound | DC50 (IRAK4 [1]) | IC50 (TNFα [2]) | IC50 (TNFα [3]) | DC50 (IRAK4 [4]) | DC50 (IRAK4 [5]; [6]) | IC50 (OCI-LY10; Homo sapiens, OCI-Ly10, 96 h) | IC50 (IRAK4 [4]) | DC50 (IRAK4 [5]; OCI-LY10, 24 hrs, read-out: IRAK4 MSD degradation in OCI-LY10 at 24 hrs: Average external-Abs DC50) | IC50 (OCI-LY10)
C=C(C)c1nn([C@H]2CC[C@H](C(=O)N(C)CCCOCCCc3cccc4c3n(C)c(=O)n4C3CCC(=O)NC3=O)CC2)cc1NC(=O)c1coc(-c2ccnc(NCC3CC3)c2)n1 (stereo partly shown) [I-31] | 100 to 500 nM | > 1000 nM | 100 to 500 nM | 50 to 100 nM | 100 to 1000 nM | 100 to 500 nM |  |  | 
Cn1c(=O)n(C2CCC(=O)NC2=O)c2ccc(CCOCCN3CCO[C@@H](CNC[C@H]4CC[C@H](n5cc(NC(=O)c6cnn7ccc(N8CCNCC8)nc67)c(C(F)F)n5)CC4)C3)cc21 (stereo partly shown) [I-41] | < 50 nM | 500 to 1000 nM | 100 to 500 nM |  | < 10 nM | > 1000 nM | < 50 nM |  | 
CN(CCCCOCCCCc1cccc2c1n(C)c(=O)n2C1CCC(=O)NC1=O)C[C@H]1CC[C@H](n2cc(NC(=O)c3coc(-c4ccnc(NCC5CC5)c4)n3)c(C(F)F)n2)CC1 (stereo partly shown) [I-67] | 50 to 100 nM |  | 50 to 100 nM | 50 to 100 nM | < 10 nM | < 50 nM |  |  | 
CN(CC1CCN(CCC#Cc2ccc3c(c2)n(C)c(=O)n3C2CCC(=O)NC2=O)CC1)C(=O)[C@H]1CC[C@H](n2cc(NC(=O)c3coc(-c4ccnc(NCC5CC5)c4)n3)c(C(F)F)n2)CC1 (stereo partly shown) [I-27] | < 50 nM | 100 to 500 nM |  |  | < 10 nM | < 50 nM | < 50 nM |  | 
O=C1CCC(N2C[C@H](c3ccc(C#CCN4CCO[C@@H](CNC[C@H]5CC[C@H](n6cc(NC(=O)c7coc(-c8ccnc(NCC9CC9)c8)n7)c(C(F)F)n6)CC5)C4)cc3)OC2=O)C(=O)N1 (stereo partly shown) [I-40] | 100 to 500 nM | 100 to 500 nM | < 50 nM |  | 10 to 100 nM | < 50 nM | < 50 nM |  | 
Cn1c(=O)n(C2CCC(=O)NC2=O)c2cccc(CCCOC3CCN(C[C@H]4CC[C@H](n5cc(NC(=O)c6coc(-c7ccnc(NCC8CC8)c7)n6)c(C(F)F)n5)CC4)CC3)c21 (stereo partly shown) [I-48] | < 50 nM | 100 to 500 nM | 100 to 500 nM |  | < 10 nM | < 50 nM | < 50 nM |  | 
NC(=O)c1nn([C@H]2CC[C@H](CNCCCOCCCc3cccc4c3oc(=O)n4C3CCC(=O)NC3=O)CC2)cc1NC(=O)c1coc(-c2ccnc(NCC(F)(F)F)c2)n1 (stereo partly shown) [I-12] | 100 to 500 nM | 500 to 1000 nM |  | 500 to 1000 nM | 10 to 100 nM | 500 to 1000 nM |  |  | 
CN(CCCOCCCc1cccc2c1n(C)c(=O)n2C1CCC(=O)NC1=O)C[C@H]1CC[C@H](n2cc(NC(=O)c3cccc(C(F)(F)F)n3)c(C(F)F)n2)CC1 (stereo partly shown) [I-44] |  | > 1000 nM | > 1000 nM |  | > 1000 nM | > 1000 nM |  | > 1000 nM | 
CN(CC1CCN(Cc2cccc3c2n(C)c(=O)n3C2CCC(=O)NC2=O)CC1)C[C@H]1CC[C@H](n2cc(NC(=O)c3coc(-c4ccnc(NCC5CC5)c4)n3)c(C(F)F)n2)CC1 (stereo partly shown) [I-76] | 50 to 100 nM |  | < 50 nM | 50 to 100 nM | < 10 nM | < 50 nM |  |  | 
CN(CCCOCCCc1cccc2c1n(C)c(=O)n2C1CCC(=O)NC1=O)C(=O)[C@H]1CC[C@H](n2cc(NC(=O)c3coc(-c4ccnc(NCC(F)(F)F)c4)n3)c(C(N)=O)n2)CC1 (stereo partly shown) [I-29] | 500 to 1000 nM | > 1000 nM |  | 500 to 1000 nM | < 10 nM |  |  |  | > 1000 nM
CN(CCCOCCCc1cccc2c1n(C)c(=O)n2C1CCC(=O)NC1=O)C(=O)[C@H]1CC[C@H](n2cc(NC(=O)c3coc(-c4ccnc(NCC(F)(F)F)c4)n3)c(C(N)=O)n2)CC1 (stereo partly shown) [I-28, N-[3-carbamoyl-1-[4-[3-[3-[1-(2,6-dioxo-3-piperidyl)-3-methyl-2-oxo-benzimidazol-4-yl]propoxy]propyl-methylcarbamoyl]cyclohexyl]pyrazol-4-yl]-2-[2-(2,2,2-trifluoroethylamino)-4-pyridyl]oxazole-4-carboxamide] | 100 to 500 nM | > 1000 nM |  | 50 to 100 nM | < 10 nM |  |  |  | < 50 nM
O=C1CCC(n2c(=O)oc3c(CCCOCCNC(=O)[C@H]4CC[C@H](n5cc(NC(=O)c6coc(-c7ccnc(NCC8CC8)c7)n6)c(C(F)F)n5)CC4)cccc32)C(=O)N1 (stereo partly shown) [I-5] | 100 to 500 nM | > 1000 nM |  | 100 to 500 nM | < 10 nM | < 50 nM |  |  | 
Cn1c(=O)n(C2CCC(=O)NC2=O)c2cccc(CCCOCCOCCNC[C@H]3CC[C@H](n4cc(NC(=O)c5coc(-c6ccnc(NCC(F)(F)F)c6)n5)c(C(N)=O)n4)CC3)c21 (stereo partly shown) [I-6] | < 50 nM | > 1000 nM |  |  | < 10 nM | > 1000 nM | < 50 nM |  | 
O=C1CCC(n2c3cc(CCCOCCOCCNC[C@H]4CC[C@H](n5cc(NC(=O)c6coc(-c7ccnc(NCC8CC8)c7)n6)c(C(F)F)n5)CC4)ccc3c3cccnc32)C(=O)N1 (stereo partly shown) [I-81] | > 1000 nM |  | 500 to 1000 nM |  | 100 to 1000 nM | > 1000 nM | > 1000 nM |  | 
Cn1c(=O)n(C2CCC(=O)NC2=O)c2ccc(CCCCOCCCCNC[C@H]3CC[C@H](n4cc(NC(=O)c5coc(-c6ccnc(NCC(F)(F)F)c6)n5)c(C(N)=O)n4)CC3)cc21 (stereo partly shown) [I-9] | 50 to 100 nM | > 1000 nM |  |  | < 10 nM | > 1000 nM | < 50 nM |  | 
Cn1c(=O)n(C2CCC(=O)NC2=O)c2ccc(CCCOCCNC[C@H]3CC[C@H](n4cc(NC(=O)c5coc(-c6ccnc(NCC(F)(F)F)c6)n5)c(C(N)=O)n4)CC3)cc21 (stereo partly shown) [I-8] | < 50 nM | > 1000 nM |  |  | 10 to 100 nM | > 1000 nM | < 50 nM |  | 
CN(C[C@@H]1CN(CCCc2ccc3c(c2)n(C)c(=O)n3C2CCC(=O)NC2=O)CCO1)C[C@H]1CC[C@H](n2cc(NC(=O)c3coc(-c4ccnc(NCC5CC5)c4)n3)c(C(C)(C)O)n2)CC1 (stereo partly shown) [I-33] | < 50 nM |  | 500 to 1000 nM | 500 to 1000 nM | < 10 nM | > 1000 nM |  |  | 
CN(C[C@H]1CN(CCCc2ccc3c(c2)n(C)c(=O)n3C2CCC(=O)NC2=O)CCO1)C(=O)[C@H]1CC[C@H](n2cc(NC(=O)c3coc(-c4ccnc(NCC5CC5)c4)n3)c(C(F)F)n2)CC1 (stereo partly shown) [I-18] | 100 to 500 nM | 100 to 500 nM |  |  | < 10 nM | 50 to 100 nM | < 50 nM |  | 
